Assay [1] relates to SD rats with liver fibrosis induced by CCl4. As to the kind of experiment: CCl4-induced liver fibrosis in SD rats. The format is in vivo. The following applies: ELISA. The procedure:
SD rats were fed ad libitum for 3 days, and then randomly divided into normal group and model group. Subcutaneous injection of 40% CCl4 of soybean oil to the rats of model group for the first time. Following an initial dose of 4 mL/kg, each subsequent dose was 2 mL/kg, 2 times every week. The corresponding volumes of soy oil were injected subcutaneously to the normal group. After 4 weeks of modeling, except for the normal group, other rats were weighed individually and then randomly divided into eight rats per group. The dosages of andrographolide, oxymatrine, silibinin and the compound A of the disclosure were both 20 mg/kg, and the doses of other compounds were the same molar mass as compound A, and the model group and the normal group were given an equal amount of 0.5% CMC-Na. During the 5th and 6th weeks of the experiment, modeling and administration were carried out simultaneously, furthermore, the modeling was stopped at the 7th and 8th weeks, while the administered continued to carry out. Drugs were administrated by gavage on an empty stomach in the morning every day, and were given daily for 10 days followed by 1-day break. The bedding of the rats should be replaced at the first 8 hours of the last gavage, strictly fasting with nothing but water. After 1 h of administration, an anesthetic of 3% pentobarbital sodium (2 mL/kg) was intraperitoneally injected. […] Image-Pro Plus software performed semi-quantitative analysis of fibrosis histology on the photographs of Masson stained sections. […] The expression of α-SMA (a marker of the degree of HSC activation) in liver tissue was evaluated by immunohistochemistry, and the positive expression was quantified using Image-Pro Plus, the results were shown in FIGS. 6 and 7. Data were processed and analyzed using SPSS 17.0 statistical software. Data were expressed as mean±standard deviation (X±S); There were significant differences between groups when P<0.05. The levels of LN, C-I, PC-III and C-IV in the serum of the animals were determined by ELISA using the compound H of the disclosure as a representative. Data were processed and analyzed using SPSS 17.0 statistical software. Data were expressed as mean±standard deviation (X±S); There were significant differences between groups when P<0.05. The level of IL-6 and TNF-α in the serum of the animal was determined by ELISA using the compound H of the disclosure as a representative, the results were shown in FIGS. 20 and 21. Data were processed and analyzed using SPSS 17.0 statistical software. Data were expressed as mean±standard deviation (X±S); There were significant differences between groups when P<0.05. The level of SOD and MDA in the liver tissue of the animal was determined by the compound H of the disclosure, the results were shown in FIGS. 22 and 23. […]
(In general: In an ELISA, binding on a coated surface is turned into a signal by an enzyme label.)

For assay [2], the system named is human proximal tubular epithelial cells HK-2. The assay can be described thus: TGF-β1-induced conversion of HK-2 cells to mesenchymal cells (morphological observation). The assay is classed as cell-based. The following applies: TGF-β1 5 ng/mL, 48 h, test concentrations 0.08-[…]. The procedure:
Human proximal tubular epithelial cells HK-2 (provided by the China Center for Type Culture Collection) were used to study the in vitro anti-renal fibrosis effect of the compounds of the disclosure in comparison with andrographolide (AD). HK-2 cells were cultured in DMEM-F12 medium containing 10% (V/V) fetal bovine serum, 100 μg/mL streptomycin, and 100 IU/mL penicillin respectively, and then incubated in an incubator at 5% CO2 and 37° C., humidified atmosphere. HK-2 cells in logarithmic growth phase were digested with 0.25% (w/v) trypsin and 0.02% EDTA (W/V), and diluted into 5.0×10^6/mL cell suspension with DMEM-F12 medium containing 10% (v/v) fetal bovine serum. After each 96-well plate was filled with 200 μL cell suspension, the plates were placed in an incubator for 24 h in order to generate a single layer of cells. The original medium was discarded, and the cells were washed twice with PBS, and the medium without serum was added. After 24 h of re-synchronized, 200 μL of DMEM-F12 medium containing different concentrations of the test compound and the stimulating factor TGF-β1 (5 ng/mL) was added. Each treatment was repeated in 4 wells and control group was set up. After 48 h of incubation, the cells were photographed under a microscope.

In the case of `O=C1CCC[C@@H]2[C@H]3CCC[N+]4([O-])CCC[C@@H](CN12)[C@@H]34` (some centres unmarked) [Oxymatrine, oxymatrine], in assay [1], the “content of C-I in liver tissue” value is reported as “significantly reduced” and the “content of C-IV in the serum” value is “significantly reduced”.
Take `C=C1CC[C@@H]2[C@](C)(CO)[C@H](O)CC[C@@]2(C)[C@@H]1C/C=C1/C(=O)OC[C@H]1O` [AD, andrographolide]: in assay [2] (Table 1A), the Inhibitory effect result is reported as “Medium” and the “Optimal effective dose range” value was 0.31 to 1.25 µM. In assay [2] (Table 1B), the Inhibitory effect entry was “Medium” and the “Optimal effective dose range” value fell in the range of 0.31 to 1.25 µM. Besides, in assay [1], the “content of C-I in liver tissue” value is “significantly reduced” and the “content of C-IV in the serum” value was “significantly reduced”.

Values taken from US11369584B2, “Andrographolide derivatives and method of using the same for treatment or prevention of fibrosis” (Zhengzhou University, priority 2017, dated 2022).
